The values that follow come from patent publication US9242987B2, “Heterocyclyl pyrazolopyrimidine analogues as JAK inhibitors” (Cellzome Limited, priority 2009, dated 2016).

For one assay, the target named is T1, JAK2 (Homo sapiens, UniProt O60674).
T1 construct: endogenous in cells; host or cells: Mixed Molt4/Ramos lysate (1:2)
Nature of the assay: Kinobeads assay, JAK2. The assay is classed as binding. Particulars: mixed Molt4/Ramos cell lysate, dot blot detection. The method in brief: (§1)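 Lysate from Molt4 and Ramos cells combined 1:2 at 10 mg/mL total protein met test compound and an aminopyrido-pyrimidine affinity matrix for 3 h in the cold. Captured JAK2 and JAK3, after elution, were measured by specific-antibody dot blot on an infrared system; dose-response curves yielded IC50.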

Another assay addresses T2, JAK3 (Homo sapiens, UniProt P52333).
T2 construct: endogenous in cells; host or cells: Mixed Molt4/Ramos lysate (1:2)
T2 sequence (P52333 1-1124): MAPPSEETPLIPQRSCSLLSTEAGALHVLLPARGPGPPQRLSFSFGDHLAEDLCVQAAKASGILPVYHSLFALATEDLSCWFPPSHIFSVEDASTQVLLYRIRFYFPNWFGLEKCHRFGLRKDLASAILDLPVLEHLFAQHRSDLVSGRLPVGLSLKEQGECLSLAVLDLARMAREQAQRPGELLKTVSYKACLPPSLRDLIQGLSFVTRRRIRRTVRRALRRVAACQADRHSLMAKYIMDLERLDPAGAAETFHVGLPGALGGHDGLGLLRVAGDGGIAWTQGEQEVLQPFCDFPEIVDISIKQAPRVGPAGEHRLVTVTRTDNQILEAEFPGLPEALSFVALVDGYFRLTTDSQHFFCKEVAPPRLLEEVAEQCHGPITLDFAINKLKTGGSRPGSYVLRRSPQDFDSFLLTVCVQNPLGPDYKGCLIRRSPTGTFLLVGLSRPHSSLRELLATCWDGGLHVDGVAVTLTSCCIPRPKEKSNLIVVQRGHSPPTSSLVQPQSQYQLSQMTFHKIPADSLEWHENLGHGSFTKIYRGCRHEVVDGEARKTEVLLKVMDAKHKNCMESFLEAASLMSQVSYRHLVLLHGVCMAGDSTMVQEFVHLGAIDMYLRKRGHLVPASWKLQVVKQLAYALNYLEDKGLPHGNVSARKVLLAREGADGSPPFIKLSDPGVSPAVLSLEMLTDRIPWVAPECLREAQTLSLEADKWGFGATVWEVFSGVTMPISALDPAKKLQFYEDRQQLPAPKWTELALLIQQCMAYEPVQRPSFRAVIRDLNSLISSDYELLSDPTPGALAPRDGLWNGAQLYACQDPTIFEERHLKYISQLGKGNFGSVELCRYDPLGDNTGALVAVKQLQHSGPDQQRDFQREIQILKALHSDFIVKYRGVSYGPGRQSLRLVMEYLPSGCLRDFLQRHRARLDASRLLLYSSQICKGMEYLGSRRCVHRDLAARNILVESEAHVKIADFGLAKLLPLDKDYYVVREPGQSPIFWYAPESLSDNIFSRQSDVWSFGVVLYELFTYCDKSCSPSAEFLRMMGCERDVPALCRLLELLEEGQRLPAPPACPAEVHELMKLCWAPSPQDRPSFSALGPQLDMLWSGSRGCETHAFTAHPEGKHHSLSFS
Nature of the assay: Kinobeads assay, JAK3. The assay is classed as binding. Particulars: mixed Molt4/Ramos cell lysate, dot blot detection. The method in brief: as §1

T1 sequence (O60674 whole entry): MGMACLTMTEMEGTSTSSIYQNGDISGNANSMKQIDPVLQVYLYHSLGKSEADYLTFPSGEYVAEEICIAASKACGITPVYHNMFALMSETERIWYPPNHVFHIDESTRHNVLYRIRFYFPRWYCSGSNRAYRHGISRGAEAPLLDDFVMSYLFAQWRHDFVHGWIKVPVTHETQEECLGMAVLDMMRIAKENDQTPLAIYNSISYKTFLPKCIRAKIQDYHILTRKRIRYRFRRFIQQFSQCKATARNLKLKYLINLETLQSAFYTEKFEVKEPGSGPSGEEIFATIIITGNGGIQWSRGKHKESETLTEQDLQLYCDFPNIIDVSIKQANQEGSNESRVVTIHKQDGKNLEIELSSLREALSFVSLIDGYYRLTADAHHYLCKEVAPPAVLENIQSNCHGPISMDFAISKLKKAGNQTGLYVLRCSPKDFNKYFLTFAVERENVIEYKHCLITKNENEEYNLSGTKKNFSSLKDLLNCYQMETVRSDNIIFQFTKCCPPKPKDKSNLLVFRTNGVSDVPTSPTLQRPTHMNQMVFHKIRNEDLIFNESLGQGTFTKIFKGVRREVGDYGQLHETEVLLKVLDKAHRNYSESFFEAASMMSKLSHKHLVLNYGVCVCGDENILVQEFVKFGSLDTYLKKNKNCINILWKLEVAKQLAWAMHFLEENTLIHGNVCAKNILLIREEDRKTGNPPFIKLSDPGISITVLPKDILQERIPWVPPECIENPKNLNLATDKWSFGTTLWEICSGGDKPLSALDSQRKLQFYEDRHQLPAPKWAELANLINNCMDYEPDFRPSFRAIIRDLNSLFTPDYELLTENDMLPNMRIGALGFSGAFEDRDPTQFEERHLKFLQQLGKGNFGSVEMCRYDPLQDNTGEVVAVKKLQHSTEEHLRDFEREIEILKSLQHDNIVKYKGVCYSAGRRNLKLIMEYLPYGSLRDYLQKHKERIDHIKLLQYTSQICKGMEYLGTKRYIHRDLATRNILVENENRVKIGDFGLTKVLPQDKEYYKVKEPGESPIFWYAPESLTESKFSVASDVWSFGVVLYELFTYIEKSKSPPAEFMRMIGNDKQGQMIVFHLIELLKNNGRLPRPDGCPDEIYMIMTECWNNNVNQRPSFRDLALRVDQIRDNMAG

A word on the IC50: it is the concentration that inhibits the measured activity by half. Low readings indicate greater potency, high ones weaker potency. As to `Fc1cccc(F)c1Cn1ncc2cnc(Nc3cnn(CC(F)F)c3)nc21` [Example 160, 1-(2,6-Difluorobenzyl)-N-(1-(2,2-difluoroethyl)-1H-pyrazol-4-yl)-1H-pyrazolo[3,4-d]pyrimidin-6-amine], the IC50 at JAK2 is 1 to 10 µM; at JAK3, less than 0.1 µM.

As for `FC(F)Cn1cc(Nc2ncc3cnn(Cc4ccccc4C4CC4)c3n2)cn1` [Example 161, 1-(2-Cyclopropylbenzyl)-N-(1-(2,2-difluoroethyl)-1H-pyrazol-4-yl)-1H-pyrazolo[3,4-d]pyrimidin-6-amine], the IC50 was in the range of 1 to 10 µM against JAK2 and 0.1 to 1 µM on JAK3.

Take `Cn1cc(Nc2ncc3cnn(Cc4c(F)c(F)cc(F)c4F)c3n2)cn1` [Example 163, N-(1-Methyl-1H-pyrazol-4-yl)-1-(2,3,5,6-tetrafluorobenzyl)-1H-pyrazolo[3,4-d]pyrimidin-6-amine]: the IC50 is 0.1 to 1 µM at JAK2 and less than 0.1 µM against JAK3.

As to `Cn1cc(Nc2ncc3cnn(Cc4c(F)cccc4C(F)(F)F)c3n2)cn1` [Example 164, 1-(2-Fluoro-6-(trifluoromethyl)benzyl)-N-(1-methyl-1H-pyrazol-4-yl)-1H-pyrazolo[3,4-d]pyrimidin-6-amine], the IC50 against JAK2 was 1 to 10 µM; against JAK3 it was less than 0.1 µM.

As for `Fc1ccccc1Cn1ncc2cnc(Nc3cnn(CCC4CCOCC4)c3)nc21` [Example 165, 1-(2-Fluorobenzyl)-N-(1-(2-(tetrahydro-2H-pyran-4-yl)ethyl)-1H-pyrazol-4-yl)-1H-pyrazolo[3,4-d]pyrimidin-6-amine], the results for the IC50 against JAK2 and on JAK3 were 1 to 10 µM and less than 0.1 µM, respectively.

As for `Cn1cc(Nc2ncc3cnn(Cc4cccc(OCCO)c4)c3n2)cn1` [Example 166, 2-(3-((6-((1-Methyl-1H-pyrazol-4-yl)amino)-1H-pyrazolo[3,4-d]pyrimidin-1-yl)methyl)phenoxy)ethanol], the values for the IC50 on JAK2 and on JAK3 were 1 to 10 µM and less than 0.1 µM, respectively.

With `Cn1cc(Nc2ncc3cnn(Cc4cccc(OCCN5CCCCC5)c4)c3n2)cn1` [Example 167, N-(1-Methyl-1H-pyrazol-4-yl)-1-(3-(2-(piperidin-1-yl)ethoxy)benzyl)-1H-pyrazolo[3,4-d]pyrimidin-6-amine], the results for the IC50 on JAK2 and on JAK3 were not below 10 µM and less than 0.1 µM, respectively.

Turning to `Cn1cc(Nc2ncc3cnn(Cc4ccccc4OCCO)c3n2)cn1` [Example 168, 2-(2-((6-((1-Methyl-1H-pyrazol-4-yl)amino)-1H-pyrazolo[3,4-d]pyrimidin-1-yl)methyl)phenoxy)ethanol], the IC50 against JAK2 was 1 to 10 µM; at JAK3, less than 0.1 µM.

Turning to `COCCCOc1cccc(Cn2ncc3cnc(Nc4cnn(C)c4)nc32)c1` [Example 169, 1-(3-(3-Methoxypropoxy)benzyl)-N-(1-methyl-1H-pyrazol-4-yl)-1H-pyrazolo[3,4-d]pyrimidin-6-amine], the IC50 against JAK2 is not below 10 µM; against JAK3, 0.1 to 1 µM.

As for `Cn1cc(Nc2ncc3cnn(Cc4cccc(F)n4)c3n2)cn1` [Example 170, 1-((6-Fluoropyridin-2-yl)methyl)-N-(1-methyl-1H-pyrazol-4-yl)-1H-pyrazolo[3,4-d]pyrimidin-6-amine], the IC50 at JAK2 is 1 to 10 µM; against JAK3 it was less than 0.1 µM.

For the compound `CO[C@@H](C)COc1cccc(Cn2ncc3cnc(Nc4cnn(C)c4)nc32)c1` [Example 171, (S)-1-(3-(2-Methoxypropoxy)benzyl)-N-(1-methyl-1H-pyrazol-4-yl)-1H-pyrazolo[3,4-d]pyrimidin-6-amine], the IC50 was not below 10 µM at JAK2 and less than 0.1 µM against JAK3.

`Cn1cc(Nc2ncc3cnn(Cc4cccc(OCC5CC5)c4)c3n2)cn1` [Example 172, 1-(3-(Cyclopropylmethoxy)benzyl)-N-(1-methyl-1H-pyrazol-4-yl)-1H-pyrazolo[3,4-d]pyrimidin-6-amine]: the IC50 on JAK2 is not below 10 µM; on JAK3, 0.1 to 1 µM.

As to `Cn1cc(Nc2ncc3cnn(Cc4ccccc4OCC4CC4)c3n2)cn1` [Example 173, 1-(2-(Cyclopropylmethoxy)benzyl)-N-(1-methyl-1H-pyrazol-4-yl)-1H-pyrazolo[3,4-d]pyrimidin-6-amine], the IC50 against JAK2 lay in the range of 1 to 10 µM; against JAK3, 0.1 to 1 µM.

On to `C[C@@H]1CN(c2cccc(Cn3ncc4cnc(Nc5cnn(C)c5)nc43)c2)C[C@H](C)O1` [Example 175, 1-(3-((2S,6R)-2,6-Dimethylmorpholino)benzyl)-N-(1-methyl-1H-pyrazol-4-yl)-1H-pyrazolo[3,4-d]pyrimidin-6-amine], for which the IC50 against JAK2 was not below 10 µM; against JAK3, 0.1 to 1 µM.

For `COCCOc1cccc(Cn2ncc3cnc(Nc4cnn(CC(F)F)c4)nc32)c1` [Example 176, N-(1-(2,2-Difluoroethyl)-1H-pyrazol-4-yl)-1-(3-(2-methoxyethoxy)benzyl)-1H-pyrazolo[3,4-d]pyrimidin-6-amine], the IC50 was not below 10 µM at JAK2 and 0.1 to 1 µM against JAK3.

For the compound `Fc1ccccc1Cn1ncc2cnc(Nc3cnn(CCCN4CCC4)c3)nc21` [Example 177, N-(1-(3-(Azetidin-1-yl)propyl)-1H-pyrazol-4-yl)-1-(2-fluorobenzyl)-1H-pyrazolo[3,4-d]pyrimidin-6-amine], the IC50 on JAK2 is 0.1 to 1 µM; against JAK3, less than 0.1 µM.

Consider `Cn1cc(Nc2ncc3cnn(Cc4cccc(Cl)c4Cl)c3n2)cn1` [Example 178, 1-(2,3-Dichlorobenzyl)-N-(1-methyl-1H-pyrazol-4-yl)-1H-pyrazolo[3,4-d]pyrimidin-6-amine], for which the values for the IC50 on JAK2 and against JAK3 were 1 to 10 µM and less than 0.1 µM, respectively.

As for `Cc1c(O)cccc1Cn1ncc2cnc(Nc3cnn(C)c3)nc21` [Example 179], the IC50 at JAK2 was 1 to 10 µM; against JAK3, less than 0.1 µM.

Regarding `Cn1cc(Nc2ncc3cnn(Cc4ccccc4N4CCOCC4)c3n2)cn1` [Example 180, N-(1-Methyl-1H-pyrazol-4-yl)-1-(2-morpholinobenzyl)-1H-pyrazolo[3,4-d]pyrimidin-6-amine], the IC50 on JAK2 and on JAK3 was 0.1 to 1 µM each time.

For `Cn1cc(Nc2ncc3cnn(Cc4cccc(OC5CCOC5)c4)c3n2)cn1` (stereo not drawn) [Example 181, N-(1-Methyl-1H-pyrazol-4-yl)-1-(3-((tetrahydrofuran-3-yl)oxy)benzyl)-1H-pyrazolo[3,4-d]pyrimidin-6-amine], the IC50 was not below 10 µM against JAK2 and less than 0.1 µM against JAK3.

As to `Fc1ccccc1Cn1ncc2cnc(Nc3cnn(CCN4CCNCC4)c3)nc21` [Example 182, 1-(2-Fluorobenzyl)-N-(1-(2-(piperazin-1-yl)ethyl)-1H-pyrazol-4-yl)-1H-pyrazolo[3,4-d]pyrimidin-6-amine], the IC50 against JAK2 was 0.1 to 1 µM; against JAK3, less than 0.1 µM.

With `CN(C)c1cccc(Cn2ncc3cnc(Nc4cnn(C)c4)nc32)n1` [Example 183], the figures for the IC50 against JAK2 and against JAK3 were not below 10 µM and 0.1 to 1 µM, respectively.

`COCCOc1cccc(Cn2ncc3cnc(Nc4cnn(CCCN(C)C)c4)nc32)c1` [Example 184, N-(1-(3-(Dimethylamino)propyl)-1H-pyrazol-4-yl)-1-(3-(2-methoxyethoxy)benzyl)-1H-pyrazolo[3,4-d]pyrimidin-6-amine]: the figures for the IC50 against JAK2 and on JAK3 were 1 to 10 µM and less than 0.1 µM, respectively.

As for `COCCOc1cccc(Cn2ncc3cnc(Nc4cnn(C)c4)nc32)c1C` [Example 185, 1-(3-(2-Methoxyethoxy)-2-methylbenzyl)-N-(1-methyl-1H-pyrazol-4-yl)-1H-pyrazolo[3,4-d]pyrimidin-6-amine], the IC50 against JAK2 is not below 10 µM; at JAK3, less than 0.1 µM.
